In the NIST ThermoML archive (doi:10.1016/j.tca.2010.01.021):

Experiment: molar heat capacity at constant pressure
Details: 101.33 kPa, Crystal, Small (less than 1 g) adiabatic calorimetry

N.O=C(O)c1ccccc1 [ammonium benzoate]
Details | molar heat capacity at constant pressure [J/K/mol]
80.23 K | 65.17
81.77 K | 66.19
84.03 K | 67.46
86.2 K | 68.89
88.38 K | 69.94
90.56 K | 71.51
92.57 K | 72.72
94.64 K | 74.19
96.64 K | 75.8
98.62 K | 77.01
100.55 K | 78.03
102.41 K | 79.33
104.34 K | 80.86
106.2 K | 81.8
107.97 K | 83.16
109.83 K | 84.27
111.6 K | 85.3
113.37 K | 86.37
115.15 K | 87.62
116.84 K | 88.74
118.61 K | 90.01
120.31 K | 91.47
122.97 K | 92.89
126.27 K | 94.89
129.18 K | 96.99
132.16 K | 98.85
135.06 K | 100.95
138.04 K | 102.77
141.02 K | 104.57
144.01 K | 106.24
147 K | 108.24
149.93 K | 110.5
152.9 K | 112.26
155.86 K | 113.91
158.85 K | 116.09
161.8 K | 118.15
164.77 K | 120.01
167.74 K | 121.97
170.72 K | 124.05
173.71 K | 125.52
176.67 K | 127.13
179.65 K | 129.42
183.76 K | 131.94
187.79 K | 134.2
190.78 K | 136.42
193.75 K | 138.62
196.71 K | 140.39
199.69 K | 142.17
202.71 K | 144.2
205.7 K | 146.13
208.67 K | 148.09
211.63 K | 149.94
214.62 K | 152.01
217.63 K | 153.98
220.61 K | 155.64
223.59 K | 157.46
226.57 K | 159.31
229.56 K | 161.33
232.46 K | 163.12
235.52 K | 164.85
238.67 K | 166.71
242.46 K | 169.25
246.17 K | 170.85
249.15 K | 172.58
252.13 K | 174.29
255.04 K | 176.25
258.02 K | 177.81
261.08 K | 179.36
264.07 K | 180.92
267.13 K | 182.91
270.11 K | 184.57
273.1 K | 186.5
276.05 K | 188.1
279 K | 189.37
281.97 K | 190.96
284.95 K | 192.56
287.93 K | 194.07
291 K | 195.71
293.98 K | 197.29
296.96 K | 199.56
299.95 K | 200.88
302.93 K | 203.11
305.83 K | 204.55
308.82 K | 205.93
311.72 K | 207.7
314.7 K | 209.41
317.68 K | 210.92
320.75 K | 212.63
323.73 K | 214.01
326.71 K | 215.52
329.78 K | 216.96
332.76 K | 218.8
335.75 K | 220.31
338.73 K | 222.08
341.71 K | 223.72
344.61 K | 225.36
347.6 K | 226.81
350.5 K | 228.38
353.48 K | 229.7
356.55 K | 231.21
359.53 K | 232.72
362.59 K | 234.1
365.58 K | 235.61
368.56 K | 237.58
371.54 K | 239.09
374.53 K | 240.86
377.51 K | 242.44
380.49 K | 243.95
383.4 K | 245.72
386.3 K | 247.56
389.28 K | 249.39
392.35 K | 251.17
395.33 K | 252.68
398.31 K | 254.12
